PubChem BioAssay AID192 (DTP/NCI, 2004)
Several values for one entry are separate records, joined by “and”; a condition that tells them apart may be missing. Identical values can stand only once. Inconclusive results and toxic doses are left out.

Test system: BDF1 mice, B16 melanoma ip, median survival T/C
Assay: NCI In Vivo Anticancer Drug Screen. Data for tumor model B16 Melanoma (intraperitoneal) in B6D2F1 (BDF1) mice
Conditions: endpoint: median survival time, higher = longer survival
Outline: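 In this screen, activity was judged from survival or tumor size in treated versus vehicle-treated tumor-bearing mice, reported as T/C.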

[1] = dose: 12.5 mg/kg/injection, schedule: Q01DX009 (ip), vehicle: Klucel (hydroxypropylcellulose) (HPC)
[2] = dose: 25.0 mg/kg/injection, schedule: Q01DX009 (ip), vehicle: Klucel (hydroxypropylcellulose) (HPC)
[3] = dose: 50.0 mg/kg/injection, schedule: Q01DX009 (ip), vehicle: Klucel (hydroxypropylcellulose) (HPC)

Compound: CCC1(O)CC2CN(CCc3c([nH]c4ccccc34)C(C(=O)OC)(c3cc4c(cc3OC)N(C)C3C(O)(C(N)=O)C(O)C5(CC)C=CCN6CCC43C65)C2)C1 (configuration not stated) (tested in a mixture with another compound)
- T/C (dose: 0.12 mg/kg/injection, schedule: Q04DX003 (ip), vehicle: water): 115 % of control
- T/C (dose: 0.13 mg/kg/injection, schedule: Q01DX009 (ip), vehicle: water): 162 % of control
- T/C (dose: 0.18 mg/kg/injection, schedule: Q04DX003 (ip), vehicle: saline): 159 % of control
- T/C (dose: 0.22 mg/kg/injection, schedule: Q01DX009 (ip), vehicle: water): 183 % of control
- T/C (dose: 0.25 mg/kg/injection, schedule: Q04DX003 (ip), vehicle: saline): 108 % of control
- T/C (dose: 0.25 mg/kg/injection, schedule: Q04DX003 (ip), vehicle: water): 115 % of control
- T/C (dose: 0.3 mg/kg/injection, schedule: Q04DX003 (ip), vehicle: saline): 177 % of control
- T/C (dose: 0.36 mg/kg/injection, schedule: Q01DX009 (ip), vehicle: water): 151 % of control and 184 % of control
- T/C (dose: 0.39 mg/kg/injection, schedule: Q04DX003 (ip), vehicle: saline): 176 % of control
- T/C (dose: 0.5 mg/kg/injection, schedule: Q04DX003 (ip), vehicle: saline): 109 % of control and 236 % of control
- T/C (dose: 0.5 mg/kg/injection, schedule: Q04DX003 (ip), vehicle: water): 118 % of control
- T/C (dose: 0.52 mg/kg/injection, schedule: Q04DX003 (ip), vehicle: water): 183 % of control
- T/C (dose: 0.6 mg/kg/injection, schedule: Q01DX009 (ip), vehicle: water): 241 % of control
- T/C (dose: 0.6 mg/kg/injection, schedule: Q04DX003 (ip), vehicle: saline): 119 % of control
- T/C (dose: 0.65 mg/kg/injection, schedule: Q04DX003 (ip), vehicle: saline): 172 % of control
- T/C (dose: 0.86 mg/kg/injection, schedule: Q04DX003 (ip), vehicle: water): 166 % of control and 202 % of control
- T/C (dose: 1.0 mg/kg/injection, schedule: Q04DX003 (ip), vehicle: saline): 168 % of control
- T/C (dose: 1.04 mg/kg/injection, schedule: Q01DX001 (ip), vehicle: water): 122 % of control
- T/C (dose: 1.08 mg/kg/injection, schedule: Q04DX003 (ip), vehicle: saline): 206 % of control
- T/C (dose: 1.44 mg/kg/injection, schedule: Q04DX003 (ip), vehicle: water): 151 % of control and 275 % of control
- T/C (dose: 1.73 mg/kg/injection, schedule: Q01DX001 (ip), vehicle: water): 165 % of control
- T/C (dose: 1.8 mg/kg/injection, schedule: Q04DX003 (ip), vehicle: saline): 241 % of control
- T/C (dose: 2.0 mg/kg/injection, schedule: Q04DX003 (ip), vehicle: saline): 180 % of control
- T/C (dose: 2.9 mg/kg/injection, schedule: Q01DX001 (ip), vehicle: water): 166 % of control
- T/C (dose: 4.0 mg/kg/injection, schedule: Q04DX003 (ip), vehicle: saline): 181 % of control
- T/C (dose: 4.8 mg/kg/injection, schedule: Q01DX001 (ip), vehicle: water): 152 % of control and 194 % of control
- T/C (dose: 8.0 mg/kg/injection, schedule: Q01DX001 (ip), vehicle: water): 211 % of control
- T/C (dose: 37.5 micrograms/kg/injection, schedule: Q01DX009 (ip), vehicle: water): 98 % of control
- T/C (dose: 60.0 micrograms/kg/injection, schedule: Q01DX009 (ip), vehicle: saline): 151 % of control
- T/C (dose: 75.0 micrograms/kg/injection, schedule: Q01DX009 (ip), vehicle: water): 107 % of control
- T/C (dose: 100.0 micrograms/kg/injection, schedule: Q01DX009 (ip), vehicle: saline): 152 % of control
- T/C (dose: 130.0 micrograms/kg/injection, schedule: Q01DX009 (ip), vehicle: water): 120 % of control
- T/C (dose: 150.0 micrograms/kg/injection, schedule: Q01DX009 (ip), vehicle: water): 111 % of control
- T/C (dose: 170.0 micrograms/kg/injection, schedule: Q01DX009 (ip), vehicle: saline): 226 % of control
- T/C (dose: 216.0 micrograms/kg/injection, schedule: Q01DX009 (ip), vehicle: saline): 173 % of control
- T/C (dose: 216.0 micrograms/kg/injection, schedule: Q01DX009 (ip), vehicle: water): 150 % of control and 165 % of control
- T/C (dose: 300.0 micrograms/kg/injection, schedule: Q01DX009 (ip), vehicle: water): 123 % of control
- T/C (dose: 360.0 micrograms/kg/injection, schedule: Q01DX009 (ip), vehicle: saline): 183 % of control
- T/C (dose: 360.0 micrograms/kg/injection, schedule: Q01DX009 (ip), vehicle: water): 155 % of control
- T/C (dose: 389.0 micrograms/kg/injection, schedule: Q04DX003 (ip), vehicle: saline): 187 % of control and 207 % of control
- T/C (dose: 600.0 micrograms/kg/injection, schedule: Q01DX009 (ip), vehicle: saline): 191 % of control
- T/C (dose: 600.0 micrograms/kg/injection, schedule: Q01DX009 (ip), vehicle: water): 155 % of control and 175 % of control
- T/C (dose: 648.0 micrograms/kg/injection, schedule: Q04DX003 (ip), vehicle: saline): 179 % of control and 258 % of control
- T/C (dose: 1080.0 micrograms/kg/injection, schedule: Q04DX003 (ip), vehicle: saline): 161 % of control and 214 % of control and 225 % of control
- T/C (dose: 1800.0 micrograms/kg/injection, schedule: Q04DX003 (ip), vehicle: saline): 195 % of control and 248 % of control and 303 % of control
- T/C (dose: 3000.0 micrograms/kg/injection, schedule: Q04DX003 (ip), vehicle: saline): 152 % of control and 243 % of control and 308 % of control

Compound: OC(CI)C(O)C(O)C(O)CI (configuration not stated)
- T/C (dose: 100.0 mg/kg/injection, schedule: Q01DX009 (ip), vehicle: saline): 97 % of control
- T/C (dose: 200.0 mg/kg/injection, schedule: Q01DX009 (ip), vehicle: saline): 94 % of control
- T/C (dose: 400.0 mg/kg/injection, schedule: Q01DX009 (ip), vehicle: saline): 103 % of control

Compound: O=C1NC(c2cccc3ccccc23)Nc2ccccc21 (configuration not stated)
- T/C (dose: 15.6 mg/kg/injection, schedule: Q01DX009 (ip), vehicle: Klucel (hydroxypropylcellulose) (HPC)): 97 % of control
- T/C (dose: 31.2 mg/kg/injection, schedule: Q01DX009 (ip), vehicle: Klucel (hydroxypropylcellulose) (HPC)): 100 % of control
- T/C (dose: 62.5 mg/kg/injection, schedule: Q01DX009 (ip), vehicle: Klucel (hydroxypropylcellulose) (HPC)): 104 % of control
- T/C (dose: 125.0 mg/kg/injection, schedule: Q01DX009 (ip), vehicle: Klucel (hydroxypropylcellulose) (HPC)): 108 % of control

Compound: CCCCOc1ccc(OCCCCCCCCCC[N+](C)(C)C)cc1
- T/C (dose: 1.56 mg/kg/injection, schedule: Q01DX009 (ip), vehicle: Klucel (hydroxypropylcellulose) (HPC)): 98 % of control
- T/C (dose: 3.12 mg/kg/injection, schedule: Q01DX009 (ip), vehicle: Klucel (hydroxypropylcellulose) (HPC)): 96 % of control
- T/C (dose: 6.25 mg/kg/injection, schedule: Q01DX009 (ip), vehicle: Klucel (hydroxypropylcellulose) (HPC)): 96 % of control
- T/C [1]: 93 % of control

Compound: O=[N+]([O-])c1cc(C(F)(F)F)ccc1F
- T/C [1]: 101 % of control
- T/C [2]: 109 % of control
- T/C [3]: 109 % of control
- T/C (dose: 100.0 mg/kg/injection, schedule: Q01DX009 (ip), vehicle: Klucel (hydroxypropylcellulose) (HPC)): 108 % of control

Compound: CCCCCCCCCCCCCCCCNS(=O)(=O)c1ccc(NN)cc1
- T/C [1]: 93 % of control
- T/C [2]: 96 % of control
- T/C [3]: 89 % of control and 90 % of control

Compound: CC(=O)/C(C)=C\c1ccccc1
- T/C (dose: 100.0 mg/kg/injection, schedule: Q01DX009 (ip), vehicle: saline with Tween-80): 102 % of control
- T/C (dose: 200.0 mg/kg/injection, schedule: Q01DX009 (ip), vehicle: saline with Tween-80): 95 % of control
- T/C (dose: 400.0 mg/kg/injection, schedule: Q01DX009 (ip), vehicle: saline with Tween-80): 86 % of control

Compound: C=C(C)C12CC(COC(=O)c3ccccc3)C34OC5(OC1C3C1OC1(COC(=O)CCCCCCCCCCCCCCC)C(O)C1(O)C(OC(=O)c3ccccc3)C(C)C(C(C)CCCCCCC5O)C14)O2 (configuration not stated)
- T/C (dose: 0.5 micrograms/kg/injection, schedule: Q01DX009 (ip), vehicle: saline): 106 % of control
- T/C (dose: 1.0 micrograms/kg/injection, schedule: Q01DX009 (ip), vehicle: saline): 99 % of control
- T/C (dose: 1.9 micrograms/kg/injection, schedule: Q01DX009 (ip), vehicle: saline): 100 % of control
- T/C (dose: 3.8 micrograms/kg/injection, schedule: Q01DX009 (ip), vehicle: saline): 109 % of control
- T/C (dose: 7.5 micrograms/kg/injection, schedule: Q01DX009 (ip), vehicle: saline): 94 % of control
- T/C (dose: 15.0 micrograms/kg/injection, schedule: Q01DX009 (ip), vehicle: saline): 96 % of control
- T/C (dose: 30.0 micrograms/kg/injection, schedule: Q01DX009 (ip), vehicle: saline): 96 % of control

Compound: Cc1ccc(NS(=O)(=O)c2ccccc2)c(C)c1
- T/C (dose: 75.0 mg/kg/injection, schedule: Q01DX009 (ip), vehicle: Klucel (hydroxypropylcellulose) (HPC)): 86 % of control
- T/C (dose: 150.0 mg/kg/injection, schedule: Q01DX009 (ip), vehicle: Klucel (hydroxypropylcellulose) (HPC)): 87 % of control
- T/C (dose: 300.0 mg/kg/injection, schedule: Q01DX009 (ip), vehicle: Klucel (hydroxypropylcellulose) (HPC)): 92 % of control
